In patent US20110079773A1, “Selectively Functionalized Rylene Imides and Diimides” (priority 2009, published 2011):
In brackets after ≈: the same amount, converted by molar mass.

Key:
Assay type in all cases: physicochemical
Solubility in toluene = test: Solubility in toluene
Procedure: As used herein, a compound can be considered soluble in a solvent when at least 0.1 mg of the compound can be dissolved in 1 mL of the solvent. Examples of common organic solvents include petroleum ethers; acetonitrile; aromatic hydrocarbons such as benzene, toluene, xylene, and mesitylene; ketones such as acetone, and methyl ethyl ketone; ethers such as tetrahydrofuran, dioxane, bis(2-methoxyethyl)ether, diethyl ether, di-isopropyl ether, and t-butyl methyl ether; alcohols such as methanol, ethanol, butanol, and isopropyl alcohol; aliphatic hydrocarbons such as hexanes; esters such as methyl acetate, ethyl acetate, methyl formate, ethyl formate, isopropyl acetate, and butyl acetate; amides such as dimethylformamide and dimethylacetamide; sulfoxides such as dimethylsulfoxide; halogenated aliphatic and aromatic hydrocarbons such as dichloromethane, chloroform, ethylene chloride, chlorobenzene, dichlorobenzene, and trichlorobenzene; and cyclic solvents such as cyclopentanone, cyclohexanone, and 2-methypyrrolidone. In various embodiments, the present compounds can have good solubility in solvents that are aromatic hydrocarbons such as benzene, toluene, xylene, and mesitylene.
Table 2 below compares the solubilities of several compounds according to the present teachings with their unsubstituted counterparts in toluene.

[1] = Electrochemistry (redox potentials)
Procedure: Electrochemical measurements were performed using a CH Instruments Model 622 electrochemical workstation. Measurements for compounds 4, 6, 8, and 10 were performed in dichloromethane containing 0.1 M tetrabutylammonium hexafluorophosphate (TBAPF6) electrolyte. Measurements for 2 were performed in benzonitrile with the same electrolyte. A 1.0 mm diameter platinum disk electrode, platinum wire electrode, and […] reference electrode were employed. The ferrocene/ferrocenium redox couple (Fc/Fc^+, 0.46 V vs. SCE) (see Connelly et al., Chem. Rev., 96: 877-910 (1996)) was used as an internal standard. TBAPF6 was recrystallized twice from ethyl acetate prior to use.
Alkylation (e.g., substitution of the phenethyl groups) ortho to the imide nitrogen atoms appears to render the present compounds somewhat more difficult to reduce, but easier to oxidize (Table 3). The reduction potentials of the disubstituted compounds (2, 4, and 6) are approximately 130 mV more negative than those of their parent compounds. Correspondingly, the oxidation potential of the disubstituted 6 is 40 mV less positive than that of […]. Tetrasubstituted 8 and 10 have reduction potentials that are more negative by ˜200 mV than their unsubstituted analogs. These shifts in redox potentials reasonably arise from the electron-donating nature of the alkylating (e.g., phenethyl) groups. The oxidation and reduction potentials of all alkylated molecules shift in the same direction by nearly the same amount, such that the corresponding HOMO-LUMO energy gap remains the same, as is reflected in their electronic absorption and emission spectra described below.

[2] = Steady-state electronic absorption and fluorescence spectroscopy
Procedure: Steady-state electronic absorption spectra were recorded on a Shimadzu 1601 UV/Vis spectrometer with a 2 mm quartz cuvette. Fluorescence measurements were performed using a PTI Quanta-Master 1 single photon counting spectrofluorimeter in a right angle configuration with a 1 cm quartz cuvette.
The intensity of the S0→>S1 transition increases with the size of the aromatic core, while the energy decreases. The fluorescence spectrum of each chromophore is shown in FIG. 4b and summarized in Table 4 along with that of compounds 1, 3, 5, 7, and 9. A similar trend with the emission maxima moving to longer wavelengths as the size of the aromatic core increases was observed. The electronic absorption and fluorescence properties of all the alkylated chromophores are very similar to those of the parent compounds. No observable trend is apparent for the slight shifts in λmax; however, with the exception of 2, all alkylated compounds have slightly lower extinction coefficients than their parent compounds. The fluorescence emission maxima of the alkylated compounds (Table 4) are similar to those of the parent compounds as reported in the literature. See Hydlovic et al., Phtochem. Photobiol. A., 112: 197-203 (1998); Licchelli et al., Chem. Eur. J., 8: 5161-5169 (2002); Weil et al., Chem. Eur. J., 8: 4742-4750 (2002); and Sadrai et al., J. Phys. Chem., 96: 7988-7996 (1992).

[3] = Femtosecond transient absorption (excited-state decay); conditions: transient absorption decay time constant, dry toluene
Excerpt: Femtosecond transient absorption measurements were made using a Ti:sapphire laser system as detailed in previously reported work. See Kelley et al., J. Am. Chem. Soc., 129: 3173-3181 (2007). The wavelengths used to excite the samples were 390 nm (1-4), 416 nm (5-8), and 650 nm (9 and 10). The instrument response function for the pump-probe experiments is 160 fs. The transient spectra were obtained using 10 s of averaging at a given delay time. Glass cuvettes with a 2 mm pathlength were used and the samples were dissolved in dry toluene and irradiated with 1.0 μJ pulses at the excitation wavelength. Analysis of the kinetic data was performed at multiple wavelengths using a Levenberg-Marquardt nonlinear least-squares fit to a general sum-of-exponentials function with an added Gaussian to account for the finite instrument response.
The transient absorption spectra of naphthalene monoimide 2, specifically, the S1→>Sn absorption is characterized by a single broad band at 525 nm, which decays monoexponentially with a time constant τD=34 ps. This is similar to the time constant of other NMI compounds and is attributed to rapid intersystem crossing leading to the triplet state of 2. […] The residual 530 nm absorption band decays further with a 175 ps time constant. […]

[4] = shift versus unsubstituted parent

Q: For `CCCCC(CC)CN1C(=O)c2c(CCc3ccccc3)cc3c4cccc5cccc(c6cc(CCc7ccccc7)c(c2c36)C1=O)c54` (stereo not shown) [Compound 6, N-(2′-ethylhexyl)-2,5-bis(phenethyl)perylene-3,4-dicarboximide], which “Solubility relative to unsubstituted counterpart” value (Solubility in toluene) is on record?
A: The value was “three times more soluble”.

Q: And the solubility (Solubility in toluene; organic solvent or mixture)?
A: The solubility was 6000 µg/mL (≈ 9.35 mM).

Q: And the “E^−1/2” value ([1]; first reduction potential, dichloromethane, 0.1 M TBAPF6, Fc/Fc+ (0.46 V vs. SCE) internal standard)?
A: Its value is −1.13^.

Q: And the E^+1/2 ([1]; oxidation potential, dichloromethane, 0.1 M TBAPF6, Fc/Fc+ (0.46 V vs. SCE) internal standard)?
A: Its E^+1/2 is 1.37 V.

Q: And the “E^2−1/2” value ([1]; second reduction potential, dichloromethane, 0.1 M TBAPF6)?
A: Its value is −1.43^.

Q: What about the “Oxidation potential less positive than that of parent” value [1, 4] of the same molecule?
A: Its value is 40 mV.

Q: What about the “Reduction potential more negative than that of parent compound” value [1, 4] of the same molecule?
A: Its value is “approximately 130 mV”.

Q: And the λmax ([2]; UV-vis absorption in toluene)?
A: The λmax was 501 nm.

Q: And the “E(S1)” value ([2]; determined from the average energy of the absorption and emission maxima)?
A: Its value is 2.43 eV.

Q: What about the ε ([2]; extinction coefficient at λmax, toluene) of the same molecule?
A: Its ε is 27000 M⁻¹ cm⁻¹.

Q: What about the λem ([2]; fluorescence emission maximum, toluene) of the same molecule?
A: The λem was 521^ nm.

Q: And the φF ([2]; fluorescence quantum yield)?
A: The φF was 0.98.

Q: What about the τD [3] of the same molecule?
A: The τD was 4700 ± 88 ps.
